Measurements reported in ChEMBL document CHEMBL1132710, “Antineoplastic agents. 410. Asymmetric hydroxylation of trans-combretastatin A-4” (1999).
≈ marks a conversion by molar mass, not a printed value.

Assays:
Format in all cases: functional
[1] = tested on: Neisseria gonorrhoeae; experiment: Antimicrobial activity against Neisseria gonorrhoeae
[2] = tested on: DU-145; experiment: Compound was evaluated against Human cell line prostate DU-145
[3] = tested on: FaDu; experiment: Compound was evaluated against Human cell line pharynx FADU
[4] = tested on: NCI-H460; experiment: Compound was evaluated against Human cell line lung-NSC NCI-H460
[5] = tested on: P388; experiment: Compound was evaluated against P388 mouse Leukemia cell line; conditions: read-out: ED50 (the source's name)
[6] = tested on: SK-N-SH; experiment: Compound was evaluated against Human cell line neuroblast SK-N-SH
[7] = tested on: SW-1736; experiment: Compound was evaluated against Human cell line thyroid SW1736
[8] = tested on: A498; experiment: Compound was evaluated against Human cell line renal A498
[9] = tested on: BXPC-3; experiment: Compound was evaluated against Human cell line pancreas BXPC-3
[10] = tested on: SF-295; experiment: Compound was evaluated against Human cell line CNS SF-295
[11] = tested on: KM-20L2; experiment: Compound was evaluated against Human cell line colon KM20L2
[12] = tested on: OVCAR-3; experiment: Compound was evaluated against Human cell line ovarian OVCAR-3
[13] = tested on: SK-MEL-5; experiment: Compound was evaluated against Human cell line melanoma SK-MEL-5
[14] = tested on: Staphylococcus aureus; experiment: Antimicrobial activity against Staphylococcus aureus

| MIC [1] | GI50 [2] | GI50 [4] | EC50 [5] | GI50 [6] | GI50 [7] | GI50 [9] | GI50 [12] | GI50 [13] | MIC [14] | Structure (SMILES) | GI50 [3] | GI50 [8] | GI50 [10] | GI50 [11] |
| --- | --- | --- | --- | --- | --- | --- | --- | --- | --- | --- | --- | --- | --- | --- |
|  | 7.6 µg/mL (≈ 22.7 µM) | 9 µg/mL (≈ 26.9 µM) | 32.9 µg/mL (≈ 98.4 µM) | > 10 µg/mL | > 10 µg/mL |  |  |  |  | COc1ccc([C@@H](O)Cc2cc(OC)c(OC)c(OC)c2)cc1O | 4.8 µg/mL (≈ 14.4 µM) |  |  |  |
| 25 ug disk-1 |  |  |  |  |  |  |  |  |  | COc1ccc(CCc2cc(OC)c(OC)c(OC)c2)c(O)c1O |  |  |  |  |
|  | 3.5 µg/mL (≈ 9.99 µM) | 4.4 µg/mL (≈ 12.6 µM) | 19 µg/mL (≈ 54.2 µM) | 1.5 µg/mL (≈ 4.28 µM) | 6.1 µg/mL (≈ 17.4 µM) | > 10 µg/mL | 4.5 µg/mL (≈ 12.8 µM) | 4.9 µg/mL (≈ 14 µM) |  | COc1ccc([C@@H](O)[C@H](O)c2cc(OC)c(OC)c(OC)c2)cc1O | 2.1 µg/mL (≈ 5.99 µM) | > 10 µg/mL | 5.7 µg/mL (≈ 16.3 µM) | 8.2 µg/mL (≈ 23.4 µM) |
|  | 2.1 µg/mL (≈ 5.99 µM) | 2.5 µg/mL (≈ 7.14 µM) | 2 µg/mL (≈ 5.71 µM) | 0.28 µg/mL (≈ 0.799 µM) | 1.8 µg/mL (≈ 5.14 µM) | 3.9 µg/mL (≈ 11.1 µM) | 0.38 µg/mL (≈ 1.08 µM) | 0.7 µg/mL (≈ 2 µM) |  | COc1ccc([C@H](O)[C@@H](O)c2cc(OC)c(OC)c(OC)c2)cc1O | 0.6 µg/mL (≈ 1.71 µM) | 0.91 µg/mL (≈ 2.6 µM) | 0.52 µg/mL (≈ 1.48 µM) | 0.52 µg/mL (≈ 1.48 µM) |
| 50 ug disk-1 | 0.00076 µg/mL (≈ 0.0024 µM) | 0.00056 µg/mL (≈ 0.00177 µM) | 0.00027 µg/mL (≈ 0.000853 µM) | 0.00026 µg/mL (≈ 0.000822 µM) | 0.00071 µg/mL (≈ 0.00224 µM) | 0.39 µg/mL (≈ 1.23 µM) | < 0.001 µg/mL | 0.0002 µg/mL (≈ 0.000632 µM) |  | COc1ccc(/C=C\c2cc(OC)c(OC)c(OC)c2)cc1O [COMBRETASTATIN A4] | 0.00065 µg/mL (≈ 0.00205 µM) |  | < 0.001 µg/mL | 0.061 µg/mL (≈ 0.193 µM) |
| 50 ug disk-1 |  |  |  |  |  |  |  |  | 100 ug disk-1 | COc1ccc(/C=C\c2cc(OC)c(OC)c(OC)c2)c(O)c1O [COMBRETASTATIN A-1] |  |  |  |  |

| Structure (SMILES) | MIC [1] | GI50 [2] | GI50 [4] | EC50 [5] | GI50 [6] | GI50 [7] | GI50 [9] | GI50 [12] | GI50 [13] | MIC [14] | GI50 [3] | GI50 [8] | GI50 [10] | GI50 [11] |
| --- | --- | --- | --- | --- | --- | --- | --- | --- | --- | --- | --- | --- | --- | --- |
| COc1ccc(/C=C\c2cc(OC)c(OC)c(OC)c2)cc1OP(=O)([O-])O.[Na+] | 100 ug disk-1 |  |  |  |  |  |  |  |  |  |  |  |  |  |
